Experimental data taken from patent publication US9072778B2, “Treatment regimen for N-MYC, c-MYC, and L-MYC amplified and overexpressed tumors” (UNIVERSITY OF HAWAII, priority 2005, dated 2015).

Tests used:
[1] = system: MYCN; test: Western blot of MYCN in inhibitor-treated NB cells; type: cell-based, human; settings: LAN-1 and NMB-7; 5 mM DFMO, 10 μM SAM486A (FIG. 7c)
Description: It has also been shown that MYCN can regulate p27^Kip1 in NB cells by targeting p27^Kip1 to the proteasome (Nakamura et al., (2003) Cell Death Differ, 10, 230-9, which is incorporated herein by reference in its entirety), and it is therefore possible that the observed increase in p27^Kip1 is in response to a decrease in MYCN. […] The regulation of ODC by MYCN has been previously proposed (Ben-Yosef et al., (1998) Oncogene, 17, 165-71; Lu et al., (2003) Cancer Lett, 197, 125-30; Lutz et al., (1996) Oncogene, 13, 803-12, each of which is incorporated herein by reference in its entirety), but has not been definitively confirmed. The precise mechanism by which polyamines regulate MYCN in NB cells remains to be further clarified.
To further investigate the mechanism that regulates G1 arrest in LAN-1 and NMB-7 cells, and to define the changes in associated protein responses, the cell cycle-related proteins p21^Waf1/Cip1, p27^Kip1, p53, Rb, and MYCN in NB cell lysates were studied. Cells were analyzed on days 1, 2, and 3. Equal amounts of total protein were loaded in all experiments. Proteins were scanned and the ratio of hypophosphorylated Rb (pRb) (lower band):hyperphosphorylated Rb (ppRb) (upper band) was calculated (b). MYCN bands were quantified and normalized relative to β-actin. Values are presented as percentage (%) of controls of day 1, 2 or 3. (c). […]

[2] = system: NMB-7 cells; test: Polyamine pool analysis in inhibitor-treated NMB-7 cells; type: cell-based, human; settings: DFMO = 5 mM, SAM486A = 10 μM, Spd = 10 μM
Description: Combined inhibition of both enzymes decreased polyamine pools to various degrees, and exogenous supplementation of Spd (10 μM) to cell cultures led to a substantial increase in Spd. […] In untreated control cells, the levels of Put and Spd decreased during exponential cell growth and proliferation (day 0 to day 3), which is also consistent with a decrease in ODC and AdoMetDC enzyme activities (FIGS. 3d and 3e). Spm levels decreased in untreated LAN-1 cells and remained the same in NMB-7 cells (Table 1).
(§1) Human NB cell lines were provided by Dr. Robert Seeger (LAN-1; University of California, Los Angeles, Calif.), Dr. Nai-Kong Cheung (NMB-7; Memorial Sloan-Kettering Cancer Center, NY), and the American Type Culture Collection (SK-N-SH; ATCC, Manassas, Va.). Cells were maintained in RPMI 1640 (Biosource, Rockeville, Md.) containing 10% heat-inactivated fetal bovine serum (FBS) (Invitrogen, Carlsbad, Calif.), penicillin (100 IU/ml) and streptomycin (100 μg/ml). If cells were treated with exogenous Spd, 1 mM of aminoguanidine was included as an inhibitor of serum polyamine oxidation. […] For growth and proliferation inhibition, polyamine pool, and cell cycle studies, 10 μM Spd was added together with inhibitors, and cells were assayed on days 2 and/or 3.
Intracellular polyamines were extracted from cell pellets by a method known in the art. In brief, cells were washed and centrifuged. After sonication and centrifugation, 250 μl of supernatant, 100 μl of saturated sodium carbonate, and 300 μl of 25 mg/ml dansyl chloride (5-dimethylamino-naphthalene-1-sulfonyl chloride) (Fluka, Switzerland) were mixed and analyzed via reverse phase HPLC using a C18 reverse-phase analytical column (Waters, Milford, Mass.). The effluent from the column was monitored at 510 nm (excitation at 330 nm). Polyamine levels were determined using appropriate standards. The samples were normalized in 0.2 N sodium hydroxide and the amount of total protein per sample was measured using the Bradford assay (70). Polyamine levels are expressed as nmol per mg of total cellular protein.

[3] = molecular target: T1, AdoMetDC (Homo sapiens, UniProt P17707); test: AdoMetDC enzyme activity in lysates of inhibitor-treated NB cells; type: cell-based; settings: for Specific enzyme activity ADOMETDC: DFMO = 5 mM, SAM486A = 10 μM, mean ± SD
T1 construct: processed AdoMetDC α chain (31 kDa) proteins were detected at the expected size in LAN-1 and NMB-7 cells; endogenous in cells; host or cells: LAN-1 and NMB-7 human neuroblastoma cells (LAN-1 only for the Western blot of treated cells)
T1 sequence (P17707 68-334 limits assumed): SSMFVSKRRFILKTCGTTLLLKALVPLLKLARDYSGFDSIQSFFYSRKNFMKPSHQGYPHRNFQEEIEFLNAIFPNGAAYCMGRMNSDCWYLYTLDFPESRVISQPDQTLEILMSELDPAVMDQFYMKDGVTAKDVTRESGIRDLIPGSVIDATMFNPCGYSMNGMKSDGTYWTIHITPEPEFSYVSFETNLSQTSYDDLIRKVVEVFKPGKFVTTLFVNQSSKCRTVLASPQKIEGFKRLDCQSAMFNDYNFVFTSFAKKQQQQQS
T1 sequence (P17707 1-67 limits assumed): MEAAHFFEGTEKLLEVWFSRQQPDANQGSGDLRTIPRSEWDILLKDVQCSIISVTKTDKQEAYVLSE
Description: Under identical experimental conditions, AdoMetDC activity was determined.
as §1
ODC and AdoMetDC enzyme activities were determined using a standard assay known in the art. In brief, NB cells were washed twice with ice-cold PBS and harvested in 50 mM sodium phosphate buffer (pH 7.2), 0.1 mM EDTA, 2.5 mM DTT, supplemented with 1× protease inhibitor cocktail (Roche Molecular Biochemicals, Indianapolis, Ind.). For the measurement of AdoMetDC activity, cells were harvested in the above buffer supplemented with 2.5 mM Put. Cells were lysed by three freeze/thaw cycles and cell lysates were prepared by centrifugation for 20 minutes at 14,000 rpm and 4° C. ODC activity was measured in a reaction mixture that contained 20 μM L-[1-^14C]ornithine (47.70 mCi/mmol; NEN Life Science Products, Boston, Mass.). AdoMetDC activity was assayed in a reaction mixture that contained 8.2 μM S-adenosyl-L-[carboxy-^14C]methionine (58.0-61.0 mCi/mmol; Amersham Biosciences, Piscataway, N.J.) and 140.1 μM cold S-adenosylmethionine. […] Untreated or SAM486A-treated LAN-1 extracts were assayed for AdoMetDC activity after multiple rounds of sequential dilution with harvest buffer followed by concentration of the extract (Centricon YM-10, Millipore Corporation, Bedford, Mass.) to remove the inhibitor.

Row | Specific enzyme activity ADOMETDC ([3]; LAN-1, 2 days after treatment) [% OF CONTROL] | Specific enzyme activity ADOMETDC ([3]; NMB-7, 2 days after treatment) [% OF CONTROL] | increase of measured AdoMetDC activity after sequential dilution and concentration of lysates to remove residual inhibitor ([3]; SAM486A-treated LAN-1 extracts, data not shown) [fold] | Structure (SMILES) | MYCN protein [1] | Polyamine pools PUT ([2]; NMB-7, Day 2) [NMOL/MG TOTAL PROTEIN] | Polyamine pools SPD ([2]; NMB-7, Day 2) [NMOL/MG TOTAL PROTEIN] | Polyamine pools SPM ([2]; NMB-7, Day 2) [NMOL/MG TOTAL PROTEIN] | Polyamine pools PUT ([2]; NMB-7, Day 3) [NMOL/MG TOTAL PROTEIN] | Polyamine pools SPD ([2]; NMB-7, Day 3) [NMOL/MG TOTAL PROTEIN] | Polyamine pools SPM ([2]; NMB-7, Day 3) [NMOL/MG TOTAL PROTEIN]
1 | 689 ± 94 | 582 ± 67 | – | NCCC[C@](N)(C(=O)O)C(F)F [DFMO, α-difluoromethylornithine] | strong downregulation | 0.1 | 1.9 | 9.3 | 0.0 | 1.4 | 8.6
2 | 169 ± 9 | 200 ± 16 | ~100 | N=C(N)c1cccc2c1CC/C2=N\N=C(N)N [SAM486A, 4-amidinoindan-1-one 2′-amidinohydrazone] | almost no effect | 69.6 | 5.6 | 3.9 | 259.5 | 5.5 | 3.6
